Holding throughout (assay type): in vivo
In assay [1] the test system is Cabbage Looper (Trichoplusia ni, TRIPNI). The assay is described as follows: Bioassay on Cabbage Looper (CL), 128-well diet tray assay. To be noted: Trichoplusia ni. The method in brief: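 Using eight wells per molecule, artificial diet was dosed at 50 μg/cm^2 with compound in 90:10 acetone-water and dried before one to five second-instar larvae were added per well. Covered vented trays were kept at 25° C. with 14:10 light-dark for five to seven days, then per-well percent mortality was recorded and averaged.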

The subject of assay [2] is Yellow Fever Mosquito (Aedes aegypti, AEDSAE). Description: Bioassay on Yellow Fever Mosquito (YFM), 96-well plate larval assay. The conditions noted are these: for YFM rating: Yellow Fever Mosquito, 96-well plate larval assay; for YFM (Biological Results, rating): Species YFM (Yellow Fever Mosquito). The method in brief:
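Compound stocks at 4000 ppm in DMSO were diluted with 90:10 water/acetone, and 15 μL aliquots were dispensed into six replicate plates. About 1-day-old larvae in liver-powder water were added per well. Plates were covered and held at room temperature for 3 days before each well was scored for mortality.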

Assay [3] concerns Beet Armyworm (Spodoptera exigua, LAPHEG). Description: Bioassay on Beet Armyworm (BAW), 128-well diet tray assay. Put shortly:
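Diet in each of eight wells received 50 μg/cm^2 of test molecule (90:10 acetone-water, dried), then one to five second-instar larvae were added. Mortality (%) was scored after five to seven days at 25° C. under 14:10 light-dark and averaged across the wells.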

Where [4] appears, read: Cabbage Looper, 128-well diet tray assay, read-out: CL rating.
Where [5] appears, read: Beet Armyworm, 128-well diet tray assay, read-out: BAW rating.
The mark [6] stands for this setting: Species CL (Cabbage Looper), read-out: CL (Biological Results, rating).
Where [7] appears, read: Species BAW (Beet Armyworm), read-out: BAW (Biological Results, rating).

We go through 19 molecules from patent publication US10219516B2, “Molecules having pesticidal utility, and intermediates, compositions, and processes, related thereto” (priority 2015, dated 2019).

Where two headings read alike, the source gives them in different places.

Turning to `O=C(Nc1ccc(F)cc1F)c1cc(NC(=O)[C@@H]2[C@@H](c3ccc(F)c(Cl)c3)C2(Cl)Cl)ccc1Cl` [F534, 2-Chloro-5-((1S,3S)-2,2-dichloro-3-(3-chloro-4-fluorophenyl)cyclopropane-1-carboxamido)-N-(2,4-difluorophenyl)benzamide], the pest or weed control at 50 µg/cm2 in assay [1] (setting [4]) and in assay [3] (setting [5]) was 50 to 100% throughout. In assay [2], the YFM rating result is “A (80-100)”.
Turning to `O=C(Nc1ccc(NC(=O)C2CC2(F)F)cc1)c1cc(NC(=O)[C@H]2[C@H](c3cc(Cl)cc(Cl)c3)C2(Cl)Cl)ccc1Cl` (relative stereo) [PF108, trans-2-chloro-5-(2,2-dichloro-3-(3,5-dichlorophenyl)cyclopropane-1-carboxamido)-N-(4-(2,2-difluorocyclopropane-1-carboxamido)phenyl)benzamide], the pest or weed control at 50 µg/cm2 in assay [1] (setting [4]) and in assay [3] (setting [5]) was 50 to 100% throughout. In assay [2], the YFM rating result is “A (80-100)”.
Consider `Nc1cc(NC(=O)c2cc(NC(=O)[C@H]3[C@H](c4ccc(Cl)c(Cl)c4)C3(Cl)Cl)ccc2Cl)c(F)cc1F` [F354, N-(5-Amino-2,4-difluorophenyl)-2-chloro-5-((1R,3R)-2,2-dichloro-3-(3,4-dichlorophenyl)cyclopropane-1-carboxamido)benzamide], for which the pest or weed control at 50 µg/cm2 in assay [1] (setting [6]) and in assay [3] (setting [7]) was 50 to 100% in each case. Besides, in assay [2], the “YFM (Biological Results, rating)” value is given as “A (80-100)”.
As for `C=Cc1cc(Cl)cc([C@H]2[C@H](C(=O)Nc3ccc(Cl)c(C(=O)Nc4ccc(F)cc4F)c3)C2(Cl)Cl)c1` (relative stereo) [F352, 2-Chloro-5-(trans-2,2-dichloro-3-(3-chloro-5-vinylphenyl)cyclopropane-1-carboxamido)-N-(2,4-difluorophenyl)benzamide], the pest or weed control at 50 µg/cm2 in assay [1] (setting [6]) and in assay [3] (setting [7]) was 50 to 100% each time. Besides, in assay [2], the “YFM (Biological Results, rating)” value was “A (80-100)”.
Turning to `O=C(Nc1ccc2scnc2c1)c1cc(NC(=O)[C@H]2[C@H](c3cc(Cl)cc(Cl)c3)C2(Cl)Cl)ccc1Cl` (relative stereo) [F482, trans-N-(Benzo[d]thiazol-5-yl)-2-chloro-5-(2,2-dichloro-3-(3,5-dichlorophenyl)cyclopropane-1-carboxamido)benzamide], the pest or weed control at 50 µg/cm2 in assay [1] (setting [4]) and in assay [3] (setting [5]) was 50 to 100% each time. For the same molecule, the YFM rating entry in assay [2] is on record as “A (80-100)”.
With `Cc1cc(NC(=O)c2cc(NC(=O)[C@H]3[C@H](c4cc(Cl)cc(Cl)c4)C3(Cl)Cl)ccc2Cl)cc(C)c1F` (relative stereo) [PF53, trans-2-Chloro-5-(2,2-dichloro-3-(3,5-dichlorophenyl)cyclopropane-1-carboxamido)-N-(4-fluoro-3,5-dimethylphenyl)benzamide], the pest or weed control at 50 µg/cm2 in assay [1] (setting [4]) and in assay [3] (setting [5]) was 50 to 100% in each case. Also, the YFM rating entry in assay [2] is on record as “A (80-100)”.
Take `N#Cc1cc(N)ccc1NC(=O)c1cc(NC(=O)[C@H]2[C@H](c3cc(Cl)cc(Cl)c3)C2(Cl)Cl)ccc1Cl` (relative stereo) [F236, trans-N-(4-amino-2-cyanophenyl)-2-chloro-5-(2,2-dichloro-3-(3,5-dichlorophenyl)cyclopropane-1-carboxamido)benzamide]: the pest or weed control at 50 µg/cm2 in assay [1] (setting [6]) and in assay [3] (setting [7]) was 50 to 100% in each case. Moreover, the “YFM (Biological Results, rating)” value in assay [2] is “A (80-100)”.
Regarding `O=C(Nc1ccc(F)cc1F)c1cc(NC(=O)[C@H]2[C@H](c3ccc(C(F)(F)F)c(Br)c3)C2(Cl)Cl)ccc1Cl` (relative stereo) [F365, 5-(trans)-(3-(3-Bromo-4-(trifluoromethyl)phenyl)-2,2-dichlorocyclopropane-1-carboxamido)-2-chloro-N-(2,4-difluorophenyl)benzamide], the pest or weed control at 50 µg/cm2 in assay [1] (setting [6]) and in assay [3] (setting [7]) was 50 to 100% in each case. The “YFM (Biological Results, rating)” value in assay [2] was “A (80-100)”.
As to `O=C(Nc1nc2ccc(F)cc2s1)c1cc(NC(=O)C2C(c3cc(Cl)cc(Cl)c3)C2(Cl)Cl)ccc1Cl` (stereo not drawn) [F445, 2-Chloro-5-(trans)-2,2-dichloro-3-(3,5-dichlorophenyl)cyclopropane-1-carboxamido)-N-(6-fluorobenzo[d]thiazol-2-yl)benzamide], the pest or weed control at 50 µg/cm2 in assay [1] (setting [4]) and in assay [3] (setting [5]) was 50 to 100% in each case. The YFM rating entry in assay [2] was “B (More than 0-Less than 80)”.
As for `Cc1cc(F)ccc1N(C)C(=O)c1cc(NC(=O)[C@H]2[C@H](c3ccc(F)c(Cl)c3)C2(Cl)Cl)ccc1Cl` (relative stereo) [PF50, trans-2-Chloro-5-(2,2-dichloro-3-(3-chloro-4-fluorophenyl)cyclopropane-1-carboxamido)-N-(4-fluoro-2-methylphenyl)-N-methylbenzamide], the pest or weed control at 50 µg/cm2 in assay [1] (setting [4]) and in assay [3] (setting [5]) was 50 to 100% in each case. Moreover, in assay [2], the YFM rating result is on record as “A (80-100)”.
Take `CC(=O)N(C(C)=O)c1ccc(NC(=O)c2cc(NC(=O)[C@H]3[C@H](c4cc(Cl)cc(Cl)c4)C3(Cl)Cl)ccc2Cl)c(C#N)c1` (relative stereo) [F469, trans-N-(4-(N-acetylacetamido)-2-cyanophenyl)-2-chloro-5-(2,2-dichloro-3-(3,5-dichlorophenyl)cyclopropane-1-carboxamido)benzamide]: the pest or weed control at 50 µg/cm2 in assay [1] (setting [4]) and in assay [3] (setting [5]) was 50 to 100% in each case. Further, the YFM rating entry in assay [2] is “A (80-100)”.
Take `Nc1cc(F)ccc1NC(=O)c1cc(NC(=O)[C@H]2[C@H](c3cc(Cl)cc(Cl)c3)C2(Cl)Cl)ccc1Cl` (relative stereo) [F361, trans-N-(2-amino-4-fluorophenyl)-2-chloro-5-(2,2-dichloro-3-(3,5-dichlorophenyl)cyclopropane-1-carboxamido)benzamide]: the pest or weed control at 50 µg/cm2 in assay [1] (setting [6]) and in assay [3] (setting [7]) was 50 to 100% each time. Moreover, the “YFM (Biological Results, rating)” value in assay [2] was “A (80-100)”.
For the molecule `O=C(Nc1ccc(SCC(F)(F)F)cc1)c1cc(NC(=O)[C@H]2[C@H](c3cc(Cl)cc(Cl)c3)C2(Cl)Cl)ccc1Cl` (relative stereo) [PF10, trans-2-Chloro-5-(2,2-dichloro-3-(3,5-dichlorophenyl)cyclopropane-1-carboxamido)-N-(4-((2,2,2-trifluoroethyl)thio)phenyl)benzamide], the pest or weed control at 50 µg/cm2 in assay [1] (setting [4]) and in assay [3] (setting [5]) was 50 to 100% each time. In assay [2], the YFM rating entry is given as “B (More than 0-Less than 80)”.
`O=C(Nc1ccc(F)cc1)c1cc(NC(=O)[C@H]2[C@H](c3cccc(C(F)(F)F)c3)C2(Cl)Cl)ccc1Cl` (relative stereo) [F56, trans-2-Chloro-5-(2,2-dichloro-3-(3-(trifluoromethyl)phenyl)cyclopropane-1-carboxamido)-N-(4-fluorophenyl)benzamide]: the pest or weed control at 50 µg/cm2 in assay [1] (setting [6]) and in assay [3] (setting [7]) was 50 to 100% each time. The “YFM (Biological Results, rating)” value in assay [2] is reported as “B (More than 0-Less than 80)”.
For the molecule `C=Cc1ccc([C@H]2[C@H](C(=O)Nc3ccc(Cl)c(C(=O)Nc4ccc(F)cc4F)c3)C2(Cl)Cl)cc1Cl` (relative stereo) [F319, 2-Chloro-5-(trans-2,2-dichloro-3-(3-chloro-4-vinylphenyl)cyclopropane-1-carboxamido)-N-(2,4-difluorophenyl)benzamide], the pest or weed control at 50 µg/cm2 in assay [1] (setting [6]) and in assay [3] (setting [7]) was 50 to 100% in each case. Besides, the “YFM (Biological Results, rating)” value in assay [2] is on record as “A (80-100)”.
For the molecule `C=Cc1ccc([C@H]2[C@H](C(=O)Nc3ccc(Cl)c(C(=O)Nc4ccc(F)c(N)c4F)c3)C2(Cl)Cl)cc1Cl` (relative stereo) [F355, N-(3-Amino-2,4-difluorophenyl)-2-chloro-5-(trans-2,2-dichloro-3-(3-chloro-4-vinylphenyl)cyclopropane-1-carboxamido)benzamide], the pest or weed control at 50 µg/cm2 in assay [1] (setting [6]) and in assay [3] (setting [7]) was 50 to 100% each time. For the same molecule, the “YFM (Biological Results, rating)” value in assay [2] was “A (80-100)”.
On to `CNc1ccc(N(C)C(=O)c2cc(NC(=O)[C@H]3[C@H](c4cc(Cl)c(Cl)c(Cl)c4)C3(Cl)Cl)ccc2Cl)c(C)c1` (relative stereo) [F226, trans-2-Chloro-5-(2,2-dichloro-3-(3,4,5-trichlorophenyl)cyclopropane-1-carboxamido)-N-methyl-N-(2-methyl-4-(methylamino)phenyl)benzamide], for which the pest or weed control at 50 µg/cm2 in assay [1] (setting [6]) and in assay [3] (setting [7]) was 50 to 100% throughout. In assay [2], the “YFM (Biological Results, rating)” value is “A (80-100)”.
Take `CNc1ccc(NC(=O)c2cc(NC(=O)[C@H]3[C@H](c4cc(Cl)cc(Cl)c4)C3(Cl)Cl)ccc2Cl)c(C)c1` (relative stereo) [F196, trans-2-Chloro-5-(2,2-dichloro-3-(3,5-dichlorophenyl)cyclopropane-1-carboxamido)-N-(2-methyl-4-(methylamino)phenyl)benzamide]: the pest or weed control at 50 µg/cm2 in assay [1] (setting [6]) and in assay [3] (setting [7]) was 50 to 100% in each case. Further, the “YFM (Biological Results, rating)” value in assay [2] is reported as “A (80-100)”.
As to `COC(=O)Nc1ccc(NC(=O)c2cc(NC(=O)[C@H]3[C@H](c4cc(Cl)cc(Cl)c4)C3(Cl)Cl)ccc2Cl)cc1` (relative stereo) [PF110, trans-methyl (4-(2-chloro-5-(2,2-dichloro-3-(3,5-dichlorophenyl)cyclopropane-1-carboxamido)benzamido)phenyl)carbamate], the pest or weed control at 50 µg/cm2 in assay [1] (setting [4]) and in assay [3] (setting [5]) was 50 to 100% throughout. The YFM rating entry in assay [2] is listed as “B (More than 0-Less than 80)”.
